Assay results taken from publication PMC6933707, “Palmitoylethanolamide counteracts substance P-induced mast cell activation in vitro by stimulating diacylglycerol lipase activity” (Journal of Neuroinflammation, 2019).

Tests used:
RBL-2H3 cells [1] = test: Quantitative real-time PCR of PEA/2-AG receptors and metabolic enzymes; assay type: cell-based, rat; conditions: cells stimulated 15 min with SP 10 μM or PEA 10 μM or both, vs unstimulated
Description: The mRNA expression of PEA target genes (Cnr1, Cnr2, Trpv1, Ppara, and Gpr55), as well as PEA and 2-AG biosynthetic (N-acyl phosphatidylethanolamine-specific phospholipase D, Napepld, Dagla and Daglb) and catabolic enzyme genes (fatty acid amide hydrolase, Faah; N-acylethanolamine-hydrolyzing acid amidase, Naaa; and monoacylglycerol lipase, Mgl), was studied by comparison of transcriptional expression in unstimulated RBL-2H3 cells (plated on 100 mm diameter Petri dishes) vs. the expression of these targets and enzymes in RBL-2H3 cells treated with PEA (10 μM), or stimulated with SP (10 μM) in the presence and absence of PEA (10 μM), for 15 min at 37 °C in 5% CO2 atmosphere. Total RNA was purified, quantified and reverse transcribed as previously reported. For each target, all mRNA sequences were aligned and common primers were designed (Table 1). Quantitative real-time PCR was performed by an iCycler-iQ5 in a 20 μl reaction mixture using 20 ng of cDNA. Assays were performed in quadruplicate (maximum ΔCt of replicate samples < 0.5). Optimized primers for SYBR-green analysis and optimum annealing temperatures were designed by the Allele-Id software version 7.0 (Biosoft International) and were synthesized (HPLC-purification grade) by MWG-Biotech. […] Results were expressed as fold expression compared with a reference condition (2^^−∆∆ct formula).

RBL-2H3 cells [2] = test: β-Hexosaminidase release assay; assay type: cell-based, rat; conditions: substance alone 10 μM, 15 min, vs vehicle-treated cells
Procedure: (§1) RBL-2H3 cells were plated into 24-well culture dishes at a cell density of 2 × 10^5 cells per well, or into 6-well culture dishes at a cell density of 9 × 10^5 cells per well, for 1 day at 37 °C in 5% CO2 atmosphere. After 1 day, RBL-2H3 cells were stimulated with SP (10 μM) or vehicle (water) and incubated for 15 min at 37 °C in 5% CO2 atmosphere.
SP-stimulated RBL-2H3 cells (2 × 10^5 cells/well) were treated with PEA (0.1, 0.5, 1, and 10 μM) or vehicle (methanol, max 0.1%) for 15 min at 37 °C in 5% CO2 atmosphere. After 15 min, the supernatants (15 μl) were transferred to 96-well plates and incubated with 60 μl of substrate (1 mM p-nitrophenyl-N-acetyl-β-D-glucosaminide in citrate 0.05 M, pH 4.5) for 1 h at 37 °C. To determine the total amount of released β-hexosaminidase, the cells were lysed with 0.1% Triton X-100 and incubated with substrate using the same procedure as for the determination of the activity in the supernatants. The reaction was stopped by adding 150 μl of 0.1 M sodium bicarbonate buffer (pH 10.0), and the reaction product was monitored by measuring the optical density (OD) at 405 nm by using a reader GENios Pro (Tecan). The results were expressed as % of the total β-hexosaminidase content of the cells determined by cell lysis with 0.1% Triton X-100, and calculated by using the following formula: % degranulation = [ODsupernatant/(ODsupernatant + ODtriton x−100)] × 100.

RBL-2H3 cells [3] = test: Histamine release assay (ELISA); assay type: cell-based, rat
Procedure: as §1
SP-stimulated RBL-2H3 cells (2 × 10^5 cells/well) were treated with PEA (10 μM) or vehicle (methanol) for 15 min at 37 °C in 5% CO2 atmosphere. SP-stimulated RBL-2H3 cells were also treated with a CB2 antagonist, AM630 (0.1 μM), in the presence and absence of PEA (10 μM), or JWH133 (0.1 μM) (a CB2 synthetic agonist), and incubated for the indicated time. SP-stimulated RBL-2H3 cells were also treated with 2-AG (0.1 and 1 μM), or co-treated with PEA (0.1 μM) and 2-AG (0.1 μM), and incubated for the indicated time. SP-stimulated RBL-2H3 cells were also co-treated with PEA (10 μM) and OMDM188 (10 μM) (a DAGL inhibitor), and incubated for the indicated time. After 15 min, the supernatants were collected and the amounts of secreted histamine were measured by using a histamine ELISA kit according to the manufacturer’s instructions (Abnova) and by using a reader GENios Pro (Tecan). Data were expressed as nanograms per milliliter of histamine.

RBL-2H3 cells [4] = test: LC-APCI-MS measurement of endogenous AEA, 2-AG and PEA levels; assay type: cell-based, rat; conditions: for decrease of endogenous levels of 2-AG: OMDM188 10 μM in the presence of PEA 10 μM
Procedure: RBL-2H3 cells (9 × 10^5 cells/well) were stimulated with SP (10 μM) and treated with PEA (10 μM) in the presence and absence of OMDM188 (10 μM), for 15 min at 37 °C in 5% CO2 atmosphere. After 15 min, cells and supernatants were collected and homogenized in a solution of CHCl3/CH3OH/Tris-HCl 50 mM pH 7.4 (2:1:1, v/v) containing 10 pmol of [^2H]8-AEA, [^2H]5-2-AG and [^2H]4-PEA as internal standards. The lipid-containing organic phase was dried down, weighed and pre-purified by open-bed chromatography on silica gel. Fractions obtained by eluting the column with a solution of CHCl3/CH3OH (90:10 by vol.) were analyzed by Liquid Chromatography-Atmospheric Pressure Chemical Ionization-Mass Spectrometry (LC-APCI-MS) using a Shimadzu (Shimadzu, Kyoto, Japan) HPLC apparatus (LC-10ADVP) coupled to a Shimadzu (LCMS-2020) quadrupole MS via a Shimadzu APCI interface. LC-APCI-MS analyses of 2-AG and PEA were carried out in the selected ion monitoring mode, using m/z values of 356 and 348 (molecular ions + 1 for deuterated and undeuterated AEA), 384.35 and 379.35 (molecular ions + 1 for deuterated and undeuterated 2-AG), and 304 and 300 (molecular ions + 1 for deuterated and undeuterated PEA). AEA, 2-AG and PEA levels were calculated on the basis of their area ratio with the internal deuterated standard signal areas, and their amounts (pmol) were normalized per mg of lipid extract.

RBL-2H3 cells [5] = test: Toluidine blue staining, percentage of degranulation; assay type: cell-based, rat
Procedure: SP-stimulated RBL-2H3 cells [plated on poly-L-lysine (33 μg/ml) coated slides (Deckglaser, 21 × 26 mm) into 6-well culture dishes at a cell density of 9 × 10^5 cells per well] were treated and incubated as described above for histamine release assay. After 15 min, the cells were fixed with paraformaldehyde at 4% for 20 min and incubated for 3 min with toluidine blue at 0.01% in 3% acetic acid. Subsequently, a 5 min wash in distilled water and dehydration in increasing alcohols (90%, 100%) were performed. Cells were then clarified by treatment with Xylol for 5 min and finally dried slides were mounted with the DPX histogram upright. The cells were observed using a Leica DMI6000 digital microscope, acquired using the Leica DFC 340FX digital camera connected to the microscope and analyzed using the LAS AF 2.2.0 software. Degranulated RBL-2H3 cells were counted and the percentage of degranulation (based on the number of colorable cells) was calculated.

RBL-2H3 cells [6] = test: as above; assay type: cell-based, rat; conditions: compound alone 0.1 μM, in the absence of SP (data not shown)
human CB2 receptor = human CB2 receptor (Homo sapiens, UniProt P34972); test: cAMP Hunter functional activity assay at the CB2 receptors; assay type: cell-based; design: host or cells: CHO-K1; conditions: 2-AG alone, CHO-K1 cells overexpressing human CB2; read-out: IC50, reduction of NKH-477-induced cAMP levels
human CB2 receptor, sequence (P34972 whole entry): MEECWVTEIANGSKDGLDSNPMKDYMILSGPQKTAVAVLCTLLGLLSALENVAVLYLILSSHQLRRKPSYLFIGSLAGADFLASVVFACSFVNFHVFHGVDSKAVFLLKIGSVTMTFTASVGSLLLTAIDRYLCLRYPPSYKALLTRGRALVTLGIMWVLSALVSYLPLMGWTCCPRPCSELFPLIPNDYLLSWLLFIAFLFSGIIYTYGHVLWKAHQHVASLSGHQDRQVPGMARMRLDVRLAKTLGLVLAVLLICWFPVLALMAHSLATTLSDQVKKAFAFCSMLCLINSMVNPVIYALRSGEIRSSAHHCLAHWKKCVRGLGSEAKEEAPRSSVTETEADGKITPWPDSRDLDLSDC
Procedure: The cAMP Hunter™ eXpress G protein-coupled receptor (GPCR) assay was performed in Chinese Hamster Ovary (CHO)-Kl cells overexpressing the human CB2 receptor. Gi-coupled cAMP modulation was measured following the manufacturer’s protocol (DiscoverX, Fremont, CA). CHO-K1 cells overexpressing the human CB2 receptor were plated into a 96-well plate (3× 10^4 cells/well) and incubated overnight at 37 °C in 5% CO2 atmosphere. The media were aspirated and replaced with 30 μl of assay buffer. Cells were incubated 30 min at 37 °C with 15 μl of 3× concentration-response solutions of 2-AG (0.01–50 μM), or PEA (10 μM), prepared in presence of cell assay buffer containing a 3× of 25 μM NKH-477 solution (a water-soluble analog of Forskolin) to stimulate adenylate cyclase and enhance basal cAMP levels. We also investigated the effect of PEA on 2-AG receptor activation by co-incubation. Therefore, cells were also incubated 30 min at 37 °C with 2-AG and PEA (10 μM) in the presence of NKH-477 to stimulate adenylate cyclase and enhance cAMP levels. […] Relative luminescence units (RLU) were measured by using a GloMax Multi Detection System (Promega Italia). […] The percentage of response was calculated by using the following formula: % RESPONSE = 100% × (1-(RLU of test compound-RLU of NKH-477 positive control)/(RLU of vehicle-RLU of NKH-477 positive control).

[7] = SP (10 μM)-stimulated cells, compound 0.1 μM, 15 min, vs SP + vehicle
[8] = compound alone 0.1 μM, in the absence of SP (data not shown)
[9] = SP-stimulated cells treated with OMDM188 10 μM in the presence of PEA 10 μM, vs SP + vehicle
[10] = SP (10 μM)-stimulated cells, compound 1 μM, 15 min, vs SP + vehicle

Q: How did the “mRNA expression of Cnr2, Napepld, Naaa, Daglb, Faah and Mgl” value (RBL-2H3 cells [1]) turn out when substance P [SP] was run?
A: no statistically significant change

Q: And the β-hexosaminidase release (RBL-2H3 cells [2])?
A: significantly released

Q: What about the histamine release (RBL-2H3 cells [3]; substance alone 10 μM, 15 min, vs vehicle-treated cells) of the same compound?
A: significantly released

Q: What about the “endogenous levels of AEA, 2-AG, and PEA” value (RBL-2H3 cells [4]; SP 10 μM for 15 min, vs vehicle) of the same compound?
A: did not change

Q: What about the “number of degranulated cells” value (RBL-2H3 cells [5]; substance alone 10 μM, 15 min, vs vehicle) of the same compound?
A: increased the number of degranulated RBL-2H3 cells

Q: With `CCCC(C)(C)c1ccc2c(c1)OC(C)(C)[C@@H]1CC=C(C)C[C@@H]21` [JWH133] as the compound, how does the histamine release (RBL-2H3 cells [3]; [7]) read?
A: inhibited the release of histamine

Q: And the histamine release (RBL-2H3 cells [3]; SP-stimulated cells co-treated with JWH133 0.1 μM and AM630 0.1 μM, vs SP + vehicle)?
A: comparable

Q: And the histamine release (RBL-2H3 cells [3]; [8])?
A: No effect

Q: What about the degranulation (RBL-2H3 cells [6]) of the same compound?
A: no effect

Q: What about the “number of degranulated cells” value (RBL-2H3 cells [5]; [7]) of the same compound?
A: reduced the number of SP-degranulated RBL-2H3 cells

Q: What about the “number of degranulated cells” value (RBL-2H3 cells [5]; SP-stimulated cells co-treated with JWH133 0.1 μM and AM630 0.1 μM, vs SP + vehicle or SP + AM630) of the same compound?
A: comparable

Q: `COc1ccc(C(=O)c2c(C)n(CCN3CCOCC3)c3cc(I)ccc23)cc1` [AM630] was tested. Which histamine release (RBL-2H3 cells [3]; [7]) did it give?
A: comparable

Q: And the histamine release (RBL-2H3 cells [3]; [8])?
A: No effect

Q: And the “number of degranulated cells” value (RBL-2H3 cells [5]; [7])?
A: comparable

Q: What does the source list for `CCCCCCCCCCC[C@@H](C[C@@H]1OC(=O)[C@H]1CCCCCC)OC(=O)[C@@H](NC=O)[C@@H](C)CC` [OMDM188]?
A: histamine release (RBL-2H3 cells [3]; [9]): comparable; decrease of endogenous levels of 2-AG (RBL-2H3 cells [4]; SP-stimulated cells, compared to SP + PEA only): 2.5 fold; decrease of endogenous levels of 2-AG (RBL-2H3 cells [4]; unstimulated cells, compared to PEA 10 μM alone): 2.4 fold; number of degranulated cells (RBL-2H3 cells [5]; [9]): comparable

Q: Which results are given for `CCCCC/C=C\C/C=C\C/C=C\C/C=C\CCCC(=O)OC(CO)CO` [2-AG, 2-arachidonoylglycerol]?
A: histamine release (RBL-2H3 cells [3]; [7]): comparable; histamine release (RBL-2H3 cells [3]; [10]): able to reduce; number of degranulated cells (RBL-2H3 cells [5]; [7]): comparable; degranulation (RBL-2H3 cells [5]; [10]): able to reduce; IC50 (human CB2 receptor): 0.59 ± 0.16 µM
